These results are taken from patent US9630941B2 (priority 2008, dated 2017).

Molecules are shown by their SMILES.

Series [1] is described as follows: Chemical stability pH dependent at 25° C. It counts as physicochemical. As for the experimental part:
B. Chemical Stability pH Dependent at 25° C.

The nature of series [2]: Thermal stability, 120° C. for 10 min. The format is physicochemical. Conditions: for CBN content of the sample after heating / Drug remaining / THC content of the sample after heating / Drug remaining (%): 120° C. for 10 min; for Drug remaining (%): % of initial; for CBN content of the sample, initial / Initial, μg (drug itself) / THC content of the sample, initial: before heating. On the procedure: C. Thermal Stability—120° C. for 10 min.

Series [3] is described as follows: Bioreversion: plasma stability, porcine plasma. It counts as in vitro ADME.
A short description of series [4]: Aqueous solubility, pH dependent. It counts as physicochemical.
Series [5] can be described thus: Porcine buccal tissue homogenate stability. Conditions: protein concentration 2 mg/ml. The format is in vitro ADME. As for the experimental part:
(§1) b. Porcine Buccal Tissue Homogenate Stability
(§2) Protein Concentration 2 mg/ml

A short description of series [6]: Control (IPBS) stability for the buccal homogenate study. The format is physicochemical. On the procedure:
as §1, §2

On to `CCCCCc1cc(OC(=O)CCCc2ccc(NC(=O)CCC(=O)O)cc2)c2c(c1)OC(C)(C)[C@@H]1CCC(C)=C[C@@H]21` [THC-APB-HS (14), THC-4(4-aminophenyl)butyrate-hemisuccinate], for which the “First order rate constant” value in series [1] (Buffer pH 5.0, 25° C.) stood at 0.00368 h⁻¹. Further, the “First order rate constant” value in series [1] (Buffer pH 7.0, 25° C.) is “Stable”. For the same compound, in series [1] (Buffer pH 9.0, 25° C.), the “First order rate constant” value is “Stable”. Besides, in series [1] (Water, 25° C.), the “First order rate constant” value amounted to 0.00481 h⁻¹. In series [2], the “Drug loading (%)” value worked out at 96.66 ± 2.18%, the “CBN content of the sample after heating” value worked out at 38.36 ± 9.70 µg, the “Drug remaining” value came out at 1518.84 ± 34.38 µg and the “THC content of the sample after heating” value worked out at 0 µg. In addition, in series [2], the “Drug remaining (%)” value is on record as “(104.81 ± 4.74) %”; the “CBN content of the sample, initial” value is 47.63 ± 9.92 µg; the “Initial, μg (drug itself)” value was 1449.90 ± 32.76 µg; the “THC content of the sample, initial” value was found to be 0 µg. Also, in series [3], the K result is “Stable” and the T1/2 entry is listed as “Stable”.
The Aqueous Solubility is the dissolved amount per volume that the medium holds. For the compound `CCCCCc1cc(OC(=O)[C@@H](N)CCC(N)=O)c2c(c1)OC(C)(C)[C@@H]1CCC(C)=C[C@@H]21` [THC-Glutaminate (9), Δ^9-THC-glutaminate], the “Aqueous Solubility” value in series [4] (H20) was 1.61 ± 0.76 µg/mL; in series [4] (Water) it was 3.63 ± 1.72 µM; in series [4] (pH 1.2) it was 59.55 ± 0.02 µg/mL; in series [4] (pH 1.2, listed as THC-Glutamine), 134.25 ± 0.05 µM; in series [4] (pH 2), 162.82 ± 14.39 µg/mL; in series [4] (pH 2, listed as THC-Glutamine) it was 367.06 ± 32.44 µM. Further, the “Aqueous Solubility” value in series [4] (pH 3) was 46.29 ± 1.13 µg/mL; in series [4] (pH 3, listed as THC-Glutamine) it was 104.36 ± 2.55 µM; in series [4] (pH 4), 22.24 ± 2.20 µg/mL; in series [4] (pH 4, listed as THC-Glutamine), 50.13 ± 4.97 µM; in series [4] (pH 5), 5.76 ± 0.02 µg/mL; in series [4] (pH 5, listed as THC-Glutamine), 12.99 ± 0.04 µM. The “Aqueous Solubility” value in series [4] (pH 6) was 2.15 ± 0.32 µg/mL; in series [4] (pH 6, listed as THC-Glutamine) it was 4.84 ± 0.72 µM; in series [4] (pH 7) it was 0.52 ± 0.06 µg/mL; in series [4] (pH 7, listed as THC-Glutamine), 1.18 ± 0.14 µM; in series [4] (pH 8), 0.34 ± 0.33 µg/mL; in series [4] (pH 8, listed as THC-Glutamine), 0.76 ± 0.74 µM. Further, the “Aqueous Solubility” value in series [4] (pH 9) was found to be 0.16 ± 0.02 µg/mL; in series [4] (pH 9, listed as THC-Glutamine), 0.35 ± 0.04 µM. In addition, the “First order rate constant” value in series [1] (Buffer pH 5.0, 25° C.) is 70.23 ± 0.92 ×10^−3 h^−1; in series [1] (Buffer pH 7.0, 25° C.), 153.42 ± 4.26 ×10^−3 h^−1; in series [1] (Buffer pH 9.0, 25° C.), 756.35 ± 106.61 ×10^−3 h^−1; in series [1] (Water, 25° C.) it was 32.72 ± 15.19 ×10^−3 h^−1. Moreover, the “Drug loading (%)” value in series [2] worked out at 63.41 ± 2.57%. In addition, the “Drug remaining” value in series [2] is 721.31 ± 73.76 µg. Besides, the “Drug remaining (%)” value in series [2] is “(75.75 ± 4.69) %”. In addition, in series [2], the “Initial, μg (drug itself)” value amounted to 951.08 ± 38.55 µg. Besides, the K was 53.41 ± 5.84 ×10^−2 min^−1 in series [3], 40.41 ± 3.30 ×10^−3 min^−1 in series [5] and 26.30 ± 0.14 ×10^−3 min^−1 in series [6]. Further, the T1/2 in series [3] was determined as 1.31 ± 0.14 min; in series [5] it was 17.21 ± 1.40 min.
Turning to `CCCCCc1cc(OC(=O)CNC)c2c(c1)OC(C)(C)[C@@H]1CCC(C)=C[C@@H]21` [THC-Sarcosinate (7), Δ^9-THC-sarcosinate], the “Aqueous Solubility” value in series [4] (pH 1.2) stood at 101.38 ± 29.22 µg/mL; in series [4] (pH 1.2, listed as THC-Sarcosine), 263.16 ± 75.84 µM; in series [4] (pH 2), 151.75 ± 9.33 µg/mL; in series [4] (pH 2, listed as THC-Sarcosine), 393.89 ± 24.21 µM; in series [4] (pH 3) it was 96.52 ± 2.84 µg/mL; in series [4] (pH 3, listed as THC-Sarcosine), 250.54 ± 7.38 µM. Also, the “Aqueous Solubility” value turned out to be 50.74 ± 1.98 µg/mL in series [4] (pH 4); 131.70 ± 5.13 µM in series [4] (pH 4, listed as THC-Sarcosine); 7.14 ± 0.72 µg/mL in series [4] (pH 5); 18.54 ± 1.87 µM in series [4] (pH 5, listed as THC-Sarcosine); 0.53 ± 0.07 µg/mL in series [4] (pH 6); 1.38 ± 0.18 µM in series [4] (pH 6, listed as THC-Sarcosine). The “First order rate constant” value in series [1] (Buffer pH 5.0, 25° C.) is reported as 38.35 ± 4.32 ×10^−3 h^−1; in series [1] (Buffer pH 7.0, 25° C.), 605.61 ± 125.14 ×10^−3 h^−1; in series [1] (Buffer pH 9.0, 25° C.), 1209.25 ± 203.05 ×10^−3 h^−1; in series [1] (Water, 25° C.), 25.45 ± 21.99 ×10^−3 h^−1. In addition, the “Drug loading (%)” value in series [2] is given as 79.82 ± 0.85%. In addition, in series [2], the “CBN content of the sample after heating” value was 33.83 ± 0.97 µg. The “Drug remaining” value in series [2] came to 841.38 ± 40.18 µg. Further, in series [2], the “THC content of the sample after heating” value came out at 54.53 ± 3.35 µg. The “Drug remaining (%)” value in series [2] is “(70.30 ± 4.10) %”. Besides, the “CBN content of the sample, initial” value in series [2] was 40.05 ± 3.45 µg. Also, the “Initial, μg (drug itself)” value in series [2] was 1197.24 ± 12.69 µg. Also, in series [2], the “THC content of the sample, initial” value was determined as 26.68 ± 3.80 µg. Further, the values for the K in series [3], in series [5] and in series [6] were 63.16 ± 10.44 ×10^−2 min^−1, 37.36 ± 3.87 ×10^−3 min^−1 and 23.47 ± 1.60 ×10^−3 min^−1, respectively. In series [3], this compound had a T1/2 of 1.11 ± 0.18 min.
On to `CCCCCc1cc(OC(=O)[C@@H](N)Cc2c[nH]c3ccccc23)c2c(c1)OC(C)(C)[C@@H]1CCC(C)=C[C@@H]21` [THC-Tryptophanate (10), Δ^9-THC-tryptophinate], for which the “First order rate constant” value in series [1] (Buffer pH 5.0, 25° C.) was found to be 0.00829 h⁻¹. Further, the “First order rate constant” value in series [1] (Buffer pH 7.0, 25° C.) is 0.03803 h⁻¹. For the same compound, in series [2], the “Drug loading (%)” value was determined as 89.84 ± 4.53%, the “CBN content of the sample after heating” value turned out to be 16.63 ± 2.63 µg, the “Drug remaining” value was 1216.70 ± 32.88 µg and the “THC content of the sample after heating” value was 96.10 ± 16.64 µg. Further, in series [2], the “Drug remaining (%)” value is listed as “(90.47 ± 7.00) %”; the “CBN content of the sample, initial” value turned out to be 25.59 ± 2.26 µg; the “Initial, μg (drug itself)” value worked out at 1347.57 ± 67.93 µg; the “THC content of the sample, initial” value is 97.38 ± 6.39 µg. Besides, in series [3], the K is 48.55 ± 5.90 ×10^−2 min^−1 and the T1/2 is 1.44 ± 0.17 min. Further, in series [5], the K was 9.06 ± 1.26 ×10^−3 min^−1 and the T1/2 was 77.27 ± 10.73 min. Also, in series [6], the K is given as 0.77 ± 0.02 ×10^−3 min^−1.
With `CCCCCc1cc(OC(=O)C(N)Cc2c[nH]c3ccccc23)c2c(c1)OC(C)(C)C1CCC(C)=CC21.O=C(O)CC(=O)O` (centres unmarked) [THC-Tryptophanate Malonate], the “Aqueous Solubility” value worked out at 13.27 ± 14.72 µg/mL in series [4] (H20); 8.02 ± 8.90 µM in series [4] (Water); 1.58 ± 0.19 µg/mL in series [4] (pH 1.2); 0.95 ± 0.12 µM in series [4] (pH 1.2, listed as THC-Tryptophan Malonate); 4.65 ± 0.31 µg/mL in series [4] (pH 2); 2.81 ± 0.19 µM in series [4] (pH 2, listed as THC-Tryptophan Malonate).
As to `CCCCCc1cc(OC(=O)[C@@H](N)C(C)C)c2c(c1)OC(C)(C)C1CCC(C)=CC21.O=C(O)CC(=O)O` (some centres unmarked) [THC-Valinate malonate], the “Aqueous Solubility” value worked out at 1.21 ± 0.61 µg/mL in series [4] (H20); 2.33 ± 1.19 µM in series [4] (Water); 53.63 ± 1.09 µg/mL in series [4] (pH 1.2); 103.61 ± 2.11 µM in series [4] (pH 1.2, listed as THC-Valine malonate); 118.42 ± 5.07 µg/mL in series [4] (pH 2); 228.78 ± 9.79 µM in series [4] (pH 2, listed as THC-Valine malonate). Further, the “Aqueous Solubility” value in series [4] (pH 3) was found to be 50.03 ± 1.80 µg/mL; in series [4] (pH 3, listed as THC-Valine malonate), 96.65 ± 3.49 µM; in series [4] (pH 4) it was 13.92 ± 1.56 µg/mL; in series [4] (pH 4, listed as THC-Valine malonate), 26.88 ± 3.01 µM; in series [4] (pH 5), 1.22 ± 0.00 µg/mL; in series [4] (pH 5, listed as THC-Valine malonate), 2.36 ± 0.01 µM. Also, the “Aqueous Solubility” value came to 0.13 ± 0.02 µg/mL in series [4] (pH 6); 0.25 ± 0.04 µM in series [4] (pH 6, listed as THC-Valine malonate); 0.05 ± 0.02 µg/mL in series [4] (pH 7); 0.11 ± 0.03 µM in series [4] (pH 7, listed as THC-Valine malonate); 0.06 ± 0.00 µg/mL in series [4] (pH 8); 0.12 ± 0.01 µM in series [4] (pH 8, listed as THC-Valine malonate). Further, the “Aqueous Solubility” value in series [4] (pH 9) was found to be 0.14 ± 0.02 µg/mL; in series [4] (pH 9, listed as THC-Valine malonate), 0.27 ± 0.03 µM.
